Test results published in patent US12291502B2, “Topoisomerase II-alpha inhibitors and methods of treating cancer using the same” (The Regents of the University of Colorado, priority 2019, dated 2025).
Entries after “also recorded” stand apart in the source; their conditions may differ.

Key:
[1] = Water solubility (stated); assay type: physicochemical
SW620 cells = experiment: Clonogenic assay (24 h pretreatment of cells); assay type: cell-based; details: SW620 cells pretreated 24 hours, colonies over 7 days vs DMSO
Method: Clonogenic assay. SW620 cells were plated to allow for 70% confluency within 24 hours. Analogs 3, 7, and vehicle (DMSO) were then added to cells for 24 hours as pretreatment. A total of 1000 viable cells per well were plated into a six-well plate and medium was changed 2× per week. […] The fixed colonies were stained with 0.5% (w/v) crystal violet in 25% (v/v) methanol solution for 2 hours at room temperature. The stain was rinsed off with water and the plate was air dried at room temperature. Digital pictures were taken, and the images were saved in greyscale (8-bit). Images were adjusted for threshold with imaged software (Bethesda, MD, USA), the area of analysis was circled, and particles were analyzed by size (100-2000) and circularity (0.5-1).
After characterizing 3 and 7 as TOP2A ATP-competitive inhibitors, these compounds were next tested for their ability to inhibit TOP2A-dependent TCF-transcription using the well characterized TOPflash (TOP) luminescent reporter, which was used to generate a stably transduced SW620-TOP reporter cells as described previously (Zhou, et al., Oncogene 2016, 35:4990-9). These cells were used to generate single 3D tumor organoids (700 μm in diameter) uniformly arrayed in 96-well plates, which mimic aspects of tumor function observed in vivo. […]

SW620 tumor organoids = experiment: 3D invasion assay; assay type: cell-based; details: SW620 tumor organoids treated 72 hours, viable cells incubated further 72 hours
Method: 3D Invasion Assay. SW620 cells were transduced with NucLight®-Red virus (Essen BioSciences, MI) and selected with Zeocin (200 μg/mL). Transduced cells were cultured in RPMI-1640 media supplemented with 5% FBS and allowed to grow in a […] until ˜80% confluent. Afterwards, cells were plated in a CellCarrier Spheroid Ultra-Low Attachment 96-well plate (PerkinElmer, MA) at 5,000 cells/well in 2% Matrigel (Corning, NY) and allowed to grow for 72 hours. Cells were then treated with 10 μM of analogs […] and cultured for an additional 72 hours. Organoids were then collected, half a 96-well plate per treatment condition, spun down at 500 g, washed with PBS, and dissociated with 500 μL of Cultrex® Organoid Harvesting Solution (Trevigen, MD) for 30 min in ice with moderate mixing. Single cells were then spun down at 500 g, the supernatant was discarded, cells were washed with PBS, re-centrifuged, and resuspended in RPMI-1640 media supplemented with 0.5% FBS. Live cells were counted and then plated in an Incucyte® ClearView 96-well cell migration plate (Essen BioSciences, MI) in a 1:1 ratio of Matrigel (Corning, NY) and RPMI-1640 media supplemented with 0.5% FBS and 1% penicillin/streptomycin at 5,000 cells/well. […] Cell invasion was monitored using the Incucyte® ZOOM imaging system (Essen BioSciences, MI) for bottom fluorescence of invading cells per manufacturer's recommendations. […]

Row | Compound | water solubility, in words [1] | clonogenic colony formation, in words (SW620 cells) | invasive potential, in words (SW620 tumor organoids)
1 | O=C(CCN1CCOCC1)Nc1ccc2c(-c3cc(F)ccc3O)ccnc2c1O [Analog 42] | water soluble; also recorded: significantly improved water solubility |  | 
2 | CC(=O)Nc1ccc2c(-c3cc(F)ccc3O)ccnc2c1O [Analog 7] |  | sufficient to inhibit colony formation; also recorded: significantly inhibit clonogenic colony formation | inhibit the invasive potential
